Experimental data published in PubChem BioAssay (NCI).
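The compound was tested at five concentrations on cells cultured in 96-well plates, with a 48-hour exposure period. TGI denotes the concentration required for complete inhibition of growth.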

Legend:
Assay in all cases: NCI-60 cell line screen, 48 h
NCI-H23 lung = test system: NCI-H23 lung
SR leukemia = test system: SR leukemia
HCC-2998 colon = test system: HCC-2998 colon
NCI-H522 lung = test system: NCI-H522 lung
SK-MEL-2 melanoma = test system: SK-MEL-2 melanoma
UACC-62 melanoma = test system: UACC-62 melanoma
OVCAR-5 ovarian = test system: OVCAR-5 ovarian
ACHN renal = test system: ACHN renal
KM12 colon = test system: KM12 colon
SK-MEL-5 melanoma = test system: SK-MEL-5 melanoma
SN12C renal = test system: SN12C renal
SF-268 CNS = test system: SF-268 CNS
NCI-H460 lung = test system: NCI-H460 lung
SNB-19 CNS = test system: SNB-19 CNS
PC-3 prostate = test system: PC-3 prostate
K-562 leukemia = test system: K-562 leukemia
COLO 205 colon = test system: COLO 205 colon
BT-549 breast = test system: BT-549 breast
OVCAR-4 ovarian = test system: OVCAR-4 ovarian
NCI-H226 lung = test system: NCI-H226 lung
A498 renal = test system: A498 renal
EKVX NSCLC = test system: EKVX NSCLC
LOX IMVI melanoma = test system: LOX IMVI melanoma
MDA-N = test system: MDA-N
T-47D breast = test system: T-47D breast
CCRF-CEM leukemia = test system: CCRF-CEM leukemia
HOP-92 NSCLC = test system: HOP-92 NSCLC
OVCAR-8 ovarian = test system: OVCAR-8 ovarian
TK-10 renal = test system: TK-10 renal
MDA-MB-435 = test system: MDA-MB-435
RXF 393 renal = test system: RXF 393 renal
U251 CNS = test system: U251 CNS
DU-145 prostate = test system: DU-145 prostate
786-0 renal = test system: 786-0 renal
SNB-75 CNS = test system: SNB-75 CNS
HCT-116 colon = test system: HCT-116 colon
HT29 colon = test system: HT29 colon
A549 NSCLC = test system: A549 NSCLC
SF-295 CNS = test system: SF-295 CNS
MDA-MB-231 breast = test system: MDA-MB-231 breast
UACC-257 melanoma = test system: UACC-257 melanoma
CAKI-1 renal = test system: CAKI-1 renal
M14 melanoma = test system: M14 melanoma
IGROV1 ovarian = test system: IGROV1 ovarian
MALME-3M melanoma = test system: MALME-3M melanoma
RPMI-8226 leukemia = test system: RPMI-8226 leukemia
NCI/ADR-RES ovarian = test system: NCI/ADR-RES ovarian
MCF7 breast = test system: MCF7 breast
HOP-62 NSCLC = test system: HOP-62 NSCLC
UO-31 renal = test system: UO-31 renal
HCT-15 colon = test system: HCT-15 colon
SK-MEL-28 melanoma = test system: SK-MEL-28 melanoma
OVCAR-3 ovarian = test system: OVCAR-3 ovarian
SK-OV-3 ovarian = test system: SK-OV-3 ovarian
SF-539 CNS = test system: SF-539 CNS
SW-620 colon = test system: SW-620 colon
HS 578T breast = test system: HS 578T breast
MOLT-4 leukemia = test system: MOLT-4 leukemia
HL-60(TB) leukemia = test system: HL-60(TB) leukemia

Cc1cc2nc(C#N)c(N3CCN(c4ccc([N+](=O)[O-])cc4)CC3)nc2cc1C
TGI (NCI-H23 lung): > 100 µM
TGI (SR leukemia): > 100 µM
TGI (HCC-2998 colon): > 100 µM
TGI (NCI-H522 lung): > 100 µM
TGI (SK-MEL-2 melanoma): > 100 µM
TGI (UACC-62 melanoma): > 100 µM
TGI (OVCAR-5 ovarian): > 100 µM
TGI (ACHN renal): > 100 µM
TGI (KM12 colon): > 100 µM
TGI (SK-MEL-5 melanoma): > 100 µM
TGI (SN12C renal): > 100 µM
TGI (SF-268 CNS): > 100 µM
TGI (NCI-H460 lung): > 100 µM
TGI (SNB-19 CNS): > 100 µM
TGI (PC-3 prostate): > 100 µM
TGI (K-562 leukemia): > 100 µM
TGI (COLO 205 colon): > 100 µM
TGI (BT-549 breast): > 100 µM
TGI (OVCAR-4 ovarian): > 100 µM
TGI (NCI-H226 lung): > 100 µM
TGI (A498 renal): > 100 µM
TGI (EKVX NSCLC): > 100 µM
TGI (LOX IMVI melanoma): > 100 µM
TGI (MDA-N): > 100 µM
TGI (T-47D breast): > 100 µM
TGI (CCRF-CEM leukemia): > 100 µM
TGI (HOP-92 NSCLC): > 100 µM
TGI (OVCAR-8 ovarian): > 100 µM
TGI (TK-10 renal): > 100 µM
TGI (MDA-MB-435): > 100 µM
TGI (RXF 393 renal): > 100 µM
TGI (U251 CNS): > 100 µM
TGI (DU-145 prostate): > 100 µM
TGI (786-0 renal): > 92.9 µM
TGI (SNB-75 CNS): > 100 µM
TGI (HCT-116 colon): > 100 µM
TGI (HT29 colon): > 100 µM
TGI (A549 NSCLC): > 100 µM
TGI (SF-295 CNS): > 100 µM
TGI (MDA-MB-231 breast): > 100 µM
TGI (UACC-257 melanoma): > 100 µM
TGI (CAKI-1 renal): > 100 µM
TGI (M14 melanoma): > 100 µM
TGI (IGROV1 ovarian): > 100 µM
TGI (MALME-3M melanoma): > 100 µM
TGI (RPMI-8226 leukemia): > 100 µM
TGI (NCI/ADR-RES ovarian): > 100 µM
TGI (MCF7 breast): > 100 µM
TGI (HOP-62 NSCLC): > 100 µM
TGI (UO-31 renal): > 100 µM
TGI (HCT-15 colon): > 100 µM
TGI (SK-MEL-28 melanoma): > 100 µM
TGI (OVCAR-3 ovarian): > 100 µM
TGI (SK-OV-3 ovarian): > 100 µM
TGI (SF-539 CNS): 81.2 µM
TGI (SW-620 colon): > 100 µM
TGI (HS 578T breast): 95.5 µM

CC(C)OC(=O)[C@@H]1OC(C)(C)O[C@H]1C(=O)OC(C)C
TGI (NCI-H23 lung): > 100 µM
TGI (SR leukemia): > 100 µM
TGI (HCC-2998 colon): > 100 µM
TGI (NCI-H522 lung): > 100 µM
TGI (SK-MEL-2 melanoma): > 100 µM
TGI (UACC-62 melanoma): > 100 µM
TGI (OVCAR-5 ovarian): > 100 µM
TGI (ACHN renal): > 100 µM
TGI (KM12 colon): > 100 µM
TGI (SK-MEL-5 melanoma): > 100 µM
TGI (SN12C renal): > 100 µM
TGI (SF-268 CNS): > 100 µM
TGI (NCI-H460 lung): > 100 µM
TGI (SNB-19 CNS): > 100 µM
TGI (PC-3 prostate): > 100 µM
TGI (K-562 leukemia): > 100 µM
TGI (COLO 205 colon): > 100 µM
TGI (BT-549 breast): > 100 µM
TGI (OVCAR-4 ovarian): > 100 µM
TGI (NCI-H226 lung): > 100 µM
TGI (A498 renal): > 100 µM
TGI (EKVX NSCLC): > 100 µM
TGI (LOX IMVI melanoma): > 100 µM
TGI (MDA-N): > 100 µM
TGI (T-47D breast): > 100 µM
TGI (CCRF-CEM leukemia): > 100 µM
TGI (HOP-92 NSCLC): > 100 µM
TGI (OVCAR-8 ovarian): > 100 µM
TGI (TK-10 renal): > 100 µM
TGI (MDA-MB-435): > 100 µM
TGI (RXF 393 renal): > 100 µM
TGI (U251 CNS): > 100 µM
TGI (DU-145 prostate): > 100 µM
TGI (786-0 renal): > 100 µM
TGI (SNB-75 CNS): > 100 µM
TGI (HCT-116 colon): > 100 µM
TGI (HT29 colon): > 100 µM
TGI (A549 NSCLC): > 100 µM
TGI (SF-295 CNS): > 100 µM
TGI (MDA-MB-231 breast): > 100 µM
TGI (UACC-257 melanoma): > 100 µM
TGI (CAKI-1 renal): > 100 µM
TGI (IGROV1 ovarian): > 100 µM
TGI (MALME-3M melanoma): > 100 µM
TGI (RPMI-8226 leukemia): > 100 µM
TGI (NCI/ADR-RES ovarian): > 100 µM
TGI (MCF7 breast): > 100 µM
TGI (MOLT-4 leukemia): > 100 µM
TGI (HOP-62 NSCLC): > 100 µM
TGI (UO-31 renal): > 100 µM
TGI (HCT-15 colon): > 100 µM
TGI (SK-OV-3 ovarian): > 100 µM
TGI (SF-539 CNS): > 100 µM
TGI (SW-620 colon): > 100 µM
TGI (HS 578T breast): > 100 µM

C/C=C(\C)[C@@H](O)C(=O)O[C@@H]1CC(C(C)(C)O)[C@](C)(CCC(=O)OC)[C@H]2[C@H](OC(=O)[C@H](O)[C@H](C)CC)C[C@]3(C)C(=CC[C@H]3[C@H]3CO[C@H](C=C(C)C)C3)[C@]12C (some centres undefined)
TGI (NCI-H23 lung): 37.7 µM
TGI (SR leukemia): 40.2 µM
TGI (HCC-2998 colon): 29.7 µM
TGI (NCI-H522 lung): 29.5 µM
TGI (SK-MEL-2 melanoma): 32.4 µM
TGI (OVCAR-5 ovarian): 43.2 µM
TGI (ACHN renal): 34.1 µM
TGI (KM12 colon): 65.3 µM
TGI (SK-MEL-5 melanoma): 33.2 µM
TGI (SF-268 CNS): 36.8 µM
TGI (NCI-H460 lung): 38.6 µM
TGI (PC-3 prostate): 34.9 µM
TGI (K-562 leukemia): 42.4 µM
TGI (BT-549 breast): 32.7 µM
TGI (OVCAR-4 ovarian): 41.8 µM
TGI (NCI-H226 lung): 50.9 µM
TGI (A498 renal): 60.2 µM
TGI (EKVX NSCLC): 29.8 µM
TGI (LOX IMVI melanoma): 31.4 µM
TGI (MDA-N): 35.4 µM
TGI (T-47D breast): 87.1 µM
TGI (HL-60(TB) leukemia): 40.6 µM
TGI (HOP-92 NSCLC): 71.7 µM
TGI (OVCAR-8 ovarian): 33.9 µM
TGI (TK-10 renal): 61.7 µM
TGI (MDA-MB-435): 52.5 µM
TGI (RXF 393 renal): 32.9 µM
TGI (U251 CNS): 33.4 µM
TGI (DU-145 prostate): 98.5 µM
TGI (786-0 renal): 29.5 µM
TGI (SNB-75 CNS): 37.6 µM
TGI (HCT-116 colon): 31.9 µM
TGI (HT29 colon): 34.5 µM
TGI (A549 NSCLC): 61.7 µM
TGI (SF-295 CNS): > 100 µM
TGI (MDA-MB-231 breast): 38.4 µM
TGI (UACC-257 melanoma): 49.9 µM
TGI (CAKI-1 renal): 87.2 µM
TGI (M14 melanoma): 32.8 µM
TGI (IGROV1 ovarian): > 100 µM
TGI (RPMI-8226 leukemia): 38.3 µM
TGI (NCI/ADR-RES ovarian): 30.5 µM
TGI (MCF7 breast): 42.1 µM
TGI (MOLT-4 leukemia): 48.2 µM
TGI (HOP-62 NSCLC): > 100 µM
TGI (UO-31 renal): 33.5 µM
TGI (HCT-15 colon): 37.4 µM
TGI (SK-MEL-28 melanoma): 40.3 µM
TGI (OVCAR-3 ovarian): 44.2 µM
TGI (SF-539 CNS): 35.8 µM
TGI (SW-620 colon): 58 µM
TGI (HS 578T breast): 41 µM
